Reference: patent publication US11407740B2 (priority 2018, dated 2022)
Values after ≈ are worked out from the molar mass of the structure shown.

System: E. coli
Assay: Bacterial susceptibility testing, MIC by broth microdilution (CLSI)
Settings: for MIC: Escherichia coli, read-out: E. coli MIC, broth microdilution, 35° C., 18-24 h; for E. coli MIC: broth microdilution, 35° C., 18-24 h
Procedure: Minimal inhibitory concentrations (MIC) were determined by the broth microdilution method in accordance with the Clinical and Laboratory Standards Institute (CLSI) guidelines. In brief, organism suspensions were adjusted to a 0.5 McFarland standard to yield a final inoculum between 3×10^3 and 7×10^5 colony-forming units (CFU)/mL. Drug dilutions and inocula were made in sterile, cation adjusted Mueller-Hinton Broth (Beckton Dickinson). An inoculum volume of 100 μL was added to wells containing 100 μL of broth with 2-fold serial dilutions of drug.

| Compound | MIC | E. coli MIC |
| --- | --- | --- |
| O=c1[nH]cnc(CC(CO)c2ccc(C#Cc3ccc(CN[C@@H]4CCS(=O)(=O)C4)cc3)cc2)c1O (single isomer, unassigned) [Compound 40] | 1 to 8 µg/mL (≈ 2.03 to 16.2 µM) |  |
| O=c1[nH]cnc(CC(CO)c2ccc(C#Cc3ccc(CNC4CCOCC4)cc3)cc2)c1O (centres unmarked) [Compound 53] | 1 to 8 µg/mL (≈ 2.18 to 17.4 µM) |  |
| NCC(=O)N1CC[C@@H](NCc2ccc(C#Cc3ccc(C(CO)Cc4nc[nH]c(=O)c4O)cc3)cc2)C1 (mixture of isomers) [Compound 262] | 8 to 32 µg/mL |  |
| O=C(NCC(F)F)C(Cc1nc[nH]c(=O)c1O)c1ccc(C#Cc2ccc(CN3CCOCC3)cc2)cc1 (centres unmarked) [Compound 22] | < 1 µg/mL |  |
| CC(=O)N1CC[C@H](NCC(Cc2nc[nH]c(=O)c2O)c2ccc(C#Cc3ccc(CN4CCOCC4)cc3)cc2)C1 (single isomer, unassigned) [Compound 183] |  | A (A: ≤1 μg/mL) |
| CC(CC#N)NCC(Cc1nc[nH]c(=O)c1O)c1ccc(C#Cc2ccc(CN3CCOCC3)cc2)cc1 (centres unmarked) [Compound 97] | < 1 µg/mL |  |
| N[C@@H]1CCN(Cc2ccc(C#Cc3ccc(C(CO)Cc4nc[nH]c(=O)c4O)cc3)cc2)C1 (mixture of isomers) [Compound 292] | 1 to 8 µg/mL |  |
| N#CC1CN(Cc2ccc(C#Cc3ccc([C@@H](CNCC(F)F)Cc4nc[nH]c(=O)c4O)c(F)c3)cc2)C1 (single isomer, unassigned) [Compound 279] | < 1 µg/mL |  |
| O=C1N(C(CO)Cc2nc[nH]c(=O)c2O)Cc2cc(-c3ccc(CCN4CCOCC4)cc3)cn21 (centres unmarked) [Compound 203] | 1 to 8 µg/mL (≈ 2.09 to 16.7 µM) |  |
| O=c1[nH]cnc(CC(CO)c2ccc(C#Cc3ccc(CN[C@@H]4CCNC4)cc3)cc2)c1O (mixture of isomers) [Compound 62] | 1 to 8 µg/mL |  |
| O=C(O)CN1CC[C@@H](NCc2ccc(C#Cc3ccc(C(CO)Cc4nc[nH]c(=O)c4O)cc3)cc2)C1 (mixture of isomers) [Compound 156] | > 32 µg/mL |  |
| O=c1[nH]cnc(CC(CN[C@H]2C[C@H](F)C2)c2ccc(C#Cc3ccc(CN4CCOCC4)cc3)cc2)c1O (some centres unmarked) [Compound 78] | 1 to 8 µg/mL (≈ 1.94 to 15.5 µM) |  |
| O=c1[nH]cnc(C[C@H](CNCC(F)F)c2ccc(C#Cc3ccc(CN4CCOCC4)cc3)cc2)c1O (single isomer, unassigned) [Compound 117] | < 1 µg/mL |  |
| COC1CN(Cc2ccc(C#Cc3ccc(C(CNC4CC4)Cc4nc[nH]c(=O)c4O)c(F)c3)cc2)C1 (centres unmarked) [Compound 225] | < 1 µg/mL |  |
| COC(=O)C(Cc1nc[nH]c(=O)c1O)c1ccc(C#Cc2ccc(CNC3CCOC3)cc2)cc1 (centres unmarked) [Compound 27] | 1 to 8 µg/mL (≈ 2.11 to 16.9 µM) |  |
| C[C@@H](CF)NCC(Cc1nc[nH]c(=O)c1O)c1ccc(C#Cc2ccc(CNC3CCS(=O)(=O)C3)cc2)cc1 (single isomer, unassigned) [Compound 178] | 1 to 8 µg/mL (≈ 1.81 to 14.5 µM) |  |
| O=C(O)C(Cc1nc[nH]c(=O)c1O)N1Cc2cc(-c3ccc(CCN4CCOCC4)cc3)cn2C1=O (centres unmarked) [Compound 212] | > 32 µg/mL |  |
| CC(NCC(F)F)C(Cc1nc[nH]c(=O)c1O)c1ccc(C#Cc2ccc(CN3CCOCC3)cc2)cc1 (centres unmarked) [Compound 131] | 1 to 8 µg/mL (≈ 1.91 to 15.3 µM) |  |
| O=c1[nH]cnc(CC(CO)c2ccc(C#Cc3ccc(CNC4C5COCC54)cc3)cc2)c1O (centres unmarked) [Compound 37] | < 1 µg/mL |  |
| CC(C)(CF)NCC(Cc1nc[nH]c(=O)c1O)c1ccc(C#Cc2ccc(CN3CCOCC3)cc2)cc1 (centres unmarked) [Compound 301] | < 1 µg/mL |  |
| O=c1[nH]cnc(CC(CN[C@H]2C[C@@H](F)C2)c2ccc(C#Cc3ccc(CN4CCOCC4)cc3)cc2)c1O (some centres unmarked) [Compound 76] |  | A (A: ≤1 μg/mL) |

| Compound | MIC | E. coli MIC |
| --- | --- | --- |
| C[C@@H](CF)NCC(Cc1nc[nH]c(=O)c1O)c1ccc(C#Cc2ccc(CN3CC[C@H](C#N)C3)cc2)cc1 (mixture of isomers) [Compound 92] | < 1 µg/mL |  |
| C[C@@H](CO)NCC(Cc1nc[nH]c(=O)c1O)c1ccc(C#Cc2ccc(CN3CCOCC3)cc2)cc1 (single isomer, unassigned) [Compound 169] |  | A (A: ≤1 μg/mL) |
| C[C@@H](CF)NCC(Cc1nc[nH]c(=O)c1O)c1ccc(C#Cc2ccc(CN3CC4(CCOC4)C3)cc2)cc1 (mixture of isomers) [Compound 127] | 1 to 8 µg/mL |  |
| O=c1[nH]cnc(CC(CO)c2ccc(C#Cc3cnn(CC4CCOCC4)c3)cc2)c1O (centres unmarked) [Compound 194] | 1 to 8 µg/mL (≈ 2.3 to 18.4 µM) |  |
| O=c1[nH]cnc(CC(CNC2CC2)c2ccc(C#Cc3ccc(CN4CCOCC4)cc3)cc2)c1O (centres unmarked) [Compound 118] | < 1 µg/mL |  |
| COC1CN(Cc2ccc(C#Cc3ccc(C(Cc4nc[nH]c(=O)c4O)CN4CC(F)C4)cc3)cc2)C1 (centres unmarked) [Compound 180] |  | C (C: >8.0 μg/mL to ≤32 μg/mL) |
| O=C(C1CC1)N1CC[C@@H](NCc2ccc(C#Cc3ccc(C(CO)Cc4nc[nH]c(=O)c4O)cc3)cc2)C1 (some centres unmarked) [Compound 153] | < 1 µg/mL |  |
| O=c1[nH]cnc(CC(O)c2ccc(C#Cc3ccc(CN[C@@H]4CCOC4)cc3)cc2)c1O (mixture of isomers) [Compound 271] | < 1 µg/mL |  |
| COC1CN(Cc2ccc(C#Cc3ccc([C@@H](CO)Cc4nc[nH]c(=O)c4O)cc3)cc2)C1 (single isomer, unassigned) [Compound 217] | < 1 µg/mL |  |
| O=c1[nH]cnc(CC(CO)c2ccc(C#Cc3ccc(CNC4CC[S+]([O-])C4)cc3)cc2)c1O (centres unmarked) [Compound 60] | 1 to 8 µg/mL (≈ 2.09 to 16.8 µM) |  |
| O=c1[nH]cnc(C[C@@H](CN2CC(O)C2)c2ccc(C#Cc3ccc(CN4CCOCC4)cc3)cc2)c1O (single isomer, unassigned) [Compound 229] | 1 to 8 µg/mL (≈ 2 to 16 µM) |  |
| CC(C#N)NC(=O)C(Cc1nc[nH]c(=O)c1O)c1ccc(C#Cc2ccc(CN3CCOCC3)cc2)cc1 (centres unmarked) [Compound 28] | 1 to 8 µg/mL (≈ 1.95 to 15.6 µM) |  |
| O=c1[nH]cnc(C[C@H](CO)c2ccc(C#Cc3ccc(CN4CC5(CCO5)C4)cc3)cc2F)c1O (single isomer, unassigned) [Compound 273] | < 1 µg/mL |  |
| O=c1[nH]cnc(CC(CNCCF)c2ccc(C#Cc3ccn4cncc4c3)cc2)c1O (centres unmarked) [Compound 207] | 1 to 8 µg/mL (≈ 2.32 to 18.5 µM) |  |
| N#CC1CN(C[C@@H](Cc2nc[nH]c(=O)c2O)c2ccc(C#Cc3ccc(CN4CC[C@H](C#N)C4)cc3)cc2)C1 (single isomer, unassigned) [Compound 236] | < 1 µg/mL |  |
| COCCNCc1ccc(C#Cc2ccc(C(CO)Cc3nc[nH]c(=O)c3O)cc2)cc1 (centres unmarked) [Compound 57] | 1 to 8 µg/mL (≈ 2.31 to 18.5 µM) |  |
| O=c1[nH]cnc(CC2CCc3cc(C#Cc4ccc(CN5CCOCC5)cc4)ccc32)c1O (centres unmarked) [Compound 209] | 1 to 8 µg/mL (≈ 2.26 to 18.1 µM) |  |
| CCOC(=O)C(Cc1nc[nH]c(=O)c1O)c1ccc(C#Cc2ccc(CNC3COC3)cc2)cc1 (centres unmarked) [Compound 50] | 1 to 8 µg/mL (≈ 2.11 to 16.9 µM) |  |
| C[C@@H](CF)NCC(Cc1nc[nH]c(=O)c1O)c1ccc(C#Cc2ccc(CCN3CCOCC3)cc2)cc1 (mixture of isomers) [Compound 294] | < 1 µg/mL |  |
| C[C@@H](CF)NCC(Cc1nc[nH]c(=O)c1O)c1ccc(C#Cc2ccc(CNC3COC3)cc2)cc1 (mixture of isomers) [Compound 94] | < 1 µg/mL |  |
| COC[C@@H](Cc1nc[nH]c(=O)c1O)c1ccc(C#Cc2ccc(CN[C@@H]3CCNC3)cc2)cc1 (single isomer, unassigned) [Compound 288] | 1 to 8 µg/mL (≈ 2.18 to 17.4 µM) |  |

| Compound | MIC | E. coli MIC |
| --- | --- | --- |
| C[C@@H](O)CNC[C@H](Cc1nc[nH]c(=O)c1O)c1ccc(C#Cc2ccc(CN3CCOCC3)cc2)cc1 (single isomer, unassigned) [Compound 247] | 1 to 8 µg/mL (≈ 1.99 to 15.9 µM) |  |
| O=c1[nH]cnc(CC(CO)c2ccc(C#Cc3ccc(CCN[C@H]4CCOC4)cc3)cc2)c1O (mixture of isomers) [Compound 43] | < 1 µg/mL |  |
| O=c1[nH]cnc(C[C@H](CO)c2ccc(C#Cc3ccc(C4(O)CCNCC4)cc3)cc2)c1O (single isomer, unassigned) [Compound 266] | 1 to 8 µg/mL (≈ 2.24 to 18 µM) |  |
| O=C(NCCF)C(Cc1nc[nH]c(=O)c1O)c1ccc(C#Cc2ccc(CN3CCOCC3)cc2)cc1 (centres unmarked) [Compound 21] |  | B (B: >1 μg/mL to ≤8.0 μg/mL) |
| CC(=O)N1CC[C@@H](NCc2ccc(C#Cc3ccc(C(CO)Cc4nc[nH]c(=O)c4O)cc3)cc2)C1 (single isomer, unassigned) [Compound 233] |  | B (B: >1 μg/mL to ≤8.0 μg/mL) |
| COC1CN(Cc2ccc(C#Cc3ccc(C(Cc4nc[nH]c(=O)c4O)CN4C(=O)OC[C@@H]4C)cc3)cc2)C1 (some centres unmarked) [Compound 122] |  | A (A: ≤1 μg/mL) |
| CCOC(=O)C(Cc1nc[nH]c(=O)c1O)c1ccc(C#Cc2ccc(CNC3CCOC3)cc2)cc1 (centres unmarked) [Compound 26] | 1 to 8 µg/mL (≈ 2.05 to 16.4 µM) |  |
| O=c1[nH]cnc(CC(CNC2CC(F)(F)C2)c2ccc(C#Cc3ccc(CN4CCOCC4)cc3)cc2)c1O (centres unmarked) [Compound 114] |  | B (B: >1 μg/mL to ≤8.0 μg/mL) |
| O=c1[nH]cnc(CC(CN[C@H]2C[C@@H](F)C2)c2ccc(C#Cc3ccc(CN4CCOCC4)cc3)cc2)c1O (some centres unmarked) [Compound 77] |  | B (B: >1 μg/mL to ≤8.0 μg/mL) |
| COC1CN(Cc2ccc(C#Cc3ccc([C@H](CNC4(C)CC4)Cc4nc[nH]c(=O)c4O)cc3)cc2)C1 (single isomer, unassigned) [Compound 250] | < 1 µg/mL |  |
| CNCc1ccc(C#Cc2ccc(C(CO)Cc3nc[nH]c(=O)c3O)cc2)cc1 (centres unmarked) [Compound 61] | 1 to 8 µg/mL (≈ 2.57 to 20.5 µM) |  |
| CNC(=O)C(Cc1nc[nH]c(=O)c1O)c1ccc(C#Cc2ccc(CN3CCOCC3)cc2)cc1 (centres unmarked) [Compound 23] | < 1 µg/mL |  |
| COC1CN(Cc2ccc(C#Cc3ccc(C(CN[C@@H](C)CF)Cc4nc[nH]c(=O)c4O)cc3)cc2)C1 (mixture of isomers) [Compound 66] | < 1 µg/mL |  |
| O=c1[nH]cnc(CC(CO)c2ccc(C#Cc3ccc(CN[C@@H]4CCOC4)cc3)cc2)c1O (mixture of isomers) [Compound 11] | < 1 µg/mL |  |
| O=c1[nH]cnc(CC(CO)c2ccc(C#Cc3ccc(CN4CC5(COC5)C4)cc3)cc2)c1O (centres unmarked) [Compound 47] | 1 to 8 µg/mL (≈ 2.19 to 17.5 µM) |  |
| CO[C@H]1CCN(Cc2ccc(C#Cc3ccc(C(CN[C@@H](C)CF)Cc4nc[nH]c(=O)c4O)cc3)cc2)C1 (mixture of isomers) [Compound 89] | < 1 µg/mL |  |
| COC1CN(Cc2ccc(C#Cc3ccc([C@@](C)(CNC4CC4)Cc4nc[nH]c(=O)c4O)cc3)cc2)C1 (single isomer, unassigned) [Compound 228] | < 1 µg/mL |  |
| CS(=O)(=O)N[C@@H](Cc1nc[nH]c(=O)c1O)c1ccc(C#Cc2ccc(C3(O)CCNCC3)cc2)cc1 (single isomer, unassigned) [Compound 296] | 8 to 32 µg/mL (≈ 15.7 to 62.9 µM) |  |
| C[C@H](O)CNC[C@@H](Cc1nc[nH]c(=O)c1O)c1ccc(C#Cc2ccc(CN3CCOCC3)cc2)cc1 (single isomer, unassigned) [Compound 245] | < 1 µg/mL |  |
| O=c1[nH]cnc(CC(CNCCF)c2ccc(C#Cc3cnn(CC4CCOCC4)c3)cc2)c1O (centres unmarked) [Compound 206] | 1 to 8 µg/mL (≈ 2.09 to 16.7 µM) |  |
